Drawing on patent US10722514B2 (FLX Bio, Inc., priority 2017, dated 2020), this text covers IC50 for 20 compounds.

Where two headings read alike, the source gives them in different places.

The target of the test is T1, recombinant full-length USP7 (Homo sapiens, UniProt Q93009).
T1 construct: A 25 μl reaction volume containing recombinant full-length USP7 (62 pM)
The test is described as follows: USP7-mediated ubiquitin-rhodamine cleavage assay. The test is classed as biochemical. The note with it: recombinant full-length USP7 62 pM, ubiquitin-rhodamine 100 nM, 1 hour reaction at room temperature. The procedure, abridged:
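Rhodamine fluorescence read-out after acetic acid stop; IC50 by 4-parameter nonlinear regression. Enzyme at 62 pM, substrate ubiquitin-rhodamine 100 nM final, 1 h at room temperature in the dark, after 30 min compound preincubation. Buffer: HEPES pH 7.3, NaCl, TCEP, BSA; 1% DMSO.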

Setting [1] is: 30-minute incubation with compound, read-out: Potency: USP7 IC50.
Where [2] appears, read: 30-minute pre-incubation, read-out: Potency (USP7 IC50).

T1 sequence (Q93009 whole entry): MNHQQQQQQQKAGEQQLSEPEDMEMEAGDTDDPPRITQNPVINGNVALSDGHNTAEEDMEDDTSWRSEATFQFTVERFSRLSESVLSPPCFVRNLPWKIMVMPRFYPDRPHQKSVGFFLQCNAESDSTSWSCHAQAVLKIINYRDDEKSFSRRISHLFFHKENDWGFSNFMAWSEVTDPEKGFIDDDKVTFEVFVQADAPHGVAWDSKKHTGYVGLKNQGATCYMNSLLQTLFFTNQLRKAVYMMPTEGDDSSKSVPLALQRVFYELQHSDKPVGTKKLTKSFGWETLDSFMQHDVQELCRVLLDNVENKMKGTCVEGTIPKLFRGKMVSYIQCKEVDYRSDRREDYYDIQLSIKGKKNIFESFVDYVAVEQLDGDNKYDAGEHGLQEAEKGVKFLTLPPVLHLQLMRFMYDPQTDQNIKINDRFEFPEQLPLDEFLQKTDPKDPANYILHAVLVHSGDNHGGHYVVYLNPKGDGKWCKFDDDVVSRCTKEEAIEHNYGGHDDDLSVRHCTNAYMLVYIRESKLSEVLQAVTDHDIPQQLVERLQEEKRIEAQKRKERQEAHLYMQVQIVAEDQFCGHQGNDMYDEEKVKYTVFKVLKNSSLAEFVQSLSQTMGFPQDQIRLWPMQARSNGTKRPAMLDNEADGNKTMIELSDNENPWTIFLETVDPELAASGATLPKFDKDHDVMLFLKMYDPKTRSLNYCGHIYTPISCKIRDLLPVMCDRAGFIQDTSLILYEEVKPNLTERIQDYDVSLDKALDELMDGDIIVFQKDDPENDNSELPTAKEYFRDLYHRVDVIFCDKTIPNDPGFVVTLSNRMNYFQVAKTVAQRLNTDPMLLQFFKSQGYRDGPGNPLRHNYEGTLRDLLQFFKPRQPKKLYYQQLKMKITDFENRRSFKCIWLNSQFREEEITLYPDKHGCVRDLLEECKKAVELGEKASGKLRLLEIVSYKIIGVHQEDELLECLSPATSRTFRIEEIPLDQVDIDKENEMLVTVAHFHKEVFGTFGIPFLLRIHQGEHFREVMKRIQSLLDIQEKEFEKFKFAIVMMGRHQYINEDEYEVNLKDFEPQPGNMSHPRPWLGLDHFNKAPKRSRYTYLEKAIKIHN

On to `Cc1cc(Cl)cc(-c2ccnc3cc(CO)sc23)c1O[C@H]1C[C@H]2CC[C@@H](C1)N2` [Example 193, (7-(2-(((1R,3r,5S)-8-Azabicyclo[3.2.1]octan-3-yl)oxy)-5-chloro-3-methylphenyl)thieno[3,2-b]pyridin-2-yl)methanol], for which the IC50 (in general, the midpoint of a concentration-inhibition curve) under setting [1] fell in the range of 1000 to 10000 nM.
Same read-out and setting: under `Cc1cc(Cl)cc(-c2ccnc3cc(Cn4c(=O)ccn(C)c4=O)sc23)c1O[C@H]1C[C@H](N)C1` [Example 7, 3-((7-(2-((1r,3r)-3-Aminocyclobutoxy)-5-chloro-3-methylphenyl)thieno[3,2-b]pyridin-2-yl)methyl)-1-methylpyrimidine-2,4(1H,3H)-dione] stands below 1000 nM.
`Cc1cc(Cl)cc(-c2ccnc3cc(Cn4c(=O)ccn(CC(F)(F)F)c4=O)sc23)c1OC1CC(C)(N2CCOCC2)C1` (centres unmarked) [Example 613, 3-[[7-[5-chloro-3-methyl-2-(3-methyl-3-morpholino-cyclobutoxy)phenyl]thieno[3,2-b]pyridin-2-yl]methyl]-1-(2,2,2-trifluoroethyl)pyrimidine-2,4-dione; 2,2,2-trifluoroacetic acid]: under setting [2], the IC50 was below 1000 nM.
As to `Cc1cc(Cl)cc(-c2ccnc3cc(Cn4c(=O)ccn(CC(F)(F)F)c4=O)sc23)c1O[C@@H]1CC[C@@H](N)C1` [Example 59, 3-((7-(2-(((1R,3R)-3-Aminocyclopentyl)oxy)-5-chloro-3-methylphenyl)thieno[3,2-b]pyridin-2-yl)methyl)-1-(2,2,2-trifluoroethyl)pyrimidine-2,4(1H,3H)-dione], under setting [1], the IC50 was below 1000 nM.
With `Cc1cc(Cl)cc(-c2ncnc3ccsc23)c1OCC1(C)CNC1` [Example 26, 4-(5-Chloro-3-methyl-2-((3-methylazetidin-3-yl)methoxy)phenyl)thieno[3,2-d]pyrimidine], the IC50 under setting [1] lay within 10000 to 30000 nM.
The same measure, in the same setting: under `Cc1cc(Cl)cc(-c2ccnc3cc(CN4C(=O)CCC4=O)sc23)c1O[C@H]1CCNC[C@H]1C` [Example 229, 1-((7-(5-Chloro-3-methyl-2-(((3R,4S)-3-methylpiperidin-4-yl)oxy)phenyl)thieno[3,2-b]pyridin-2-yl)methyl)pyrrolidine-2,5-dione] stands below 1000 nM.
On the same count and under the same terms, in the case of `Cc1cc(Cl)cc(-c2ccnc3cc(CN4C(=O)CCC4=O)sc23)c1O[C@H]1[C@@H]2CNC[C@H]1C2` [Example 206, 1-((7-(2-(((1R,5S,6s)-3-Azabicyclo[3.1.1]heptan-6-yl)oxy)-5-chloro-3-methylphenyl)thieno[3,2-b]pyridin-2-yl)methyl)pyrrolidine-2,5-dione] it was below 1000 nM; in that of `Cc1cc(Cl)cc(-c2ccnc3cc(Cn4cnc5ccccc5c4=O)sc23)c1O[C@H]1CCCNC1` [Example 385, 3-[[7-[5-chloro-3-methyl-2-[[(3S)-3-piperidyl]oxy]phenyl]thieno[3,2-b]pyridin-2-yl]methyl]quinazolin-4-one; 2,2,2-trifluoroacetic acid], 1000 to 10000 nM; in that of `Cc1cc(Cl)cc(-c2ccnc3cc(Cn4c(=O)ccn(C5CC5)c4=O)sc23)c1O[C@H]1CCCNC1` [Example 285, 3-[[7-[5-chloro-3-methyl-2-[[(3S)-3-piperidyl]oxy]phenyl]thieno[3,2-b]pyridin-2-yl]methyl]-1-cyclopropyl-pyrimidine-2,4-dione; 2,2,2-trifluoroacetic acid], below 1000 nM.
The same measure, in the same setting: under `Cc1cc(Cl)cc(-c2ccnc3cc(Cn4c(=O)cc[nH]c4=O)sc23)c1O[C@@H]1CNC[C@@H]1F` [Example 153, 3-((7-(5-Chloro-2-(((3R,4S)-4-fluoropyrrolidin-3-yl)oxy)-3-methylphenyl)thieno[3,2-b]pyridin-2-yl)methyl)pyrimidine-2,4(1H,3H)-dione] stands below 1000 nM.
For the compound `COC[C@@H]1CCC[N+]1(C)C1CC(Oc2c(C)cc(Cl)cc2-c2ccnc3cc(Cn4c(=O)ccn(CC(F)(F)F)c4=O)sc23)C1` (stereo partly drawn) [Example 688, 3-[[7-[5-chloro-2-[3-[(2S)-2-(methoxymethyl)-1-methyl-pyrrolidin-1-ium-1-yl]cyclobutoxy]-3-methyl-phenyl]thieno[3,2-b]pyridin-2-yl]methyl]-1-(2,2,2-trifluoroethyl)pyrimidine-2,4-dione; 2,2,2-trifluoroacetate; 2,2,2-trifluoroacetic acid], under “30-minute incubation, read-out: Potency (USP7 IC50)”, the IC50 is below 1000 nM.
Turning to `Cc1cc(Cl)cc(-c2ccnc3cc(CN4C(=O)CCC4=O)sc23)c1O[C@@H]1C[C@H]2CC[C@@H](C1)N2` [Example 215, 1-((7-(2-(((1R,3s,5S)-8-Azabicyclo[3.2.1]octan-3-yl)oxy)-5-chloro-3-methylphenyl)thieno[3,2-b]pyridin-2-yl)methyl)pyrrolidine-2,5-dione], the IC50 under setting [1] was below 1000 nM.
For the compound `Cc1cc(Cl)cc(-c2ccnc3cc(CN4C(=O)CN(CC(F)(F)F)C4=O)sc23)c1OC1CCNCC1` [Example 649, 3-[[7-[5-chloro-3-methyl-2-(4-piperidyloxy)phenyl]thieno[3,2-b]pyridin-2-yl]methyl]-1-(2,2,2-trifluoroethyl)imidazolidine-2,4-dione; 2,2,2-trifluoroacetic acid], the IC50 under setting [2] is below 1000 nM.
Regarding `CCC(O)c1cc2nccc(-c3cc(Cl)cc(C)c3OCC3(C#N)CNC3)c2s1` (centres unmarked) [Example 39, 3-((4-Chloro-2-(2-(1-hydroxypropyl)thieno[3,2-b]pyridin-7-yl)-6-methylphenoxy)methyl)azetidine-3-carbonitrile], the IC50 under setting [1] is below 1000 nM.
Turning to `Cc1cc(Cl)cc(-c2ccnc3cc(CN4C(=O)N(C)C(C)(C)C4=O)sc23)c1O[C@@H]1CNC[C@@H]1F` [Example 155, 3-((7-(5-Chloro-2-(((3R,4S)-4-fluoropyrrolidin-3-yl)oxy)-3-methylphenyl)thieno[3,2-b]pyridin-2-yl)methyl)-1,5,5-trimethylimidazolidine-2,4-dione], the IC50 under setting [1] was below 1000 nM.
On to “3-((7-(5-Chloro-2-(((3S,4R)-4-fluoropiperidin-3-yl)oxy)-3-methyphenyl)thien[3,2-b]pyridin-2-yl)methyl)-1-(2,2,2-trifluoroethyl)pyrimidine-2,4(1H,3H)-dione [Example 4]”, for which the IC50 under setting [1] is below 1000 nM.
For `CCN1C[C@H](F)[C@H](Oc2c(C)cc(Cl)cc2-c2ccnc3cc(CN4C(=O)CCC4=O)sc23)C1` [Example 299, 1-[[7-[5-chloro-2-[(3R,4S)-1-ethyl-4-fluoro-pyrrolidin-3-yl]oxy-3-methyl-phenyl]thieno[3,2-b]pyridin-2-yl]methyl]pyrrolidine-2,5-dione], under setting [1], the IC50 is below 1000 nM.
The same measure, in the same setting: under `CO[C@@H]1CNC[C@@H]1Oc1c(C)cc(Cl)cc1-c1ccnc2cc(CO)sc12` [Example 66, (7-(5-Chloro-2-(((3S,4R)-4-methoxypyrrolidin-3-yl)oxy)-3-methylphenyl)thieno[3,2-b]pyridin-2-yl)methanol] stands 10000 to 30000 nM.
Regarding `O=C1CCC(=O)N1Cc1cc2nccc(-c3cc(Cl)cc(C(F)F)c3O[C@@H]3CNC[C@@H]3F)c2s1` [Example 428, 1-[[7-[5-chloro-3-(difluoromethyl)-2-[(3R,4S)-4-fluoropyrrolidin-3-yl]oxy-phenyl]thieno[3,2-b]pyridin-2-yl]methyl]pyrrolidine-2,5-dione], the IC50 under setting [2] was below 1000 nM.
As to `Cc1cc(Cl)cc(-c2ccnc3cc(Cn4c(=O)ccn(C)c4=O)sc23)c1O[C@@H]1CN(C(C)C)C[C@@H]1F` [Example 469, 3-[[7-[5-chloro-2-[(3R,4S)-4-fluoro-1-isopropyl-pyrrolidin-3-yl]oxy-3-methyl-phenyl]thieno[3,2-b]pyridin-2-yl]methyl]-1-methyl-pyrimidine-2,4-dione], the IC50 under setting [2] was below 1000 nM.
